As a reminder, the EC50 is the concentration needed to bring the measured effect to its halfway point. Low readings indicate higher potency in that assay, high ones lower potency in that assay.

Results on one compound are retold here after US8796256B2 (Janssen Pharmaceutica NV, priority 2010, dated 2014).

Each structure is given as a SMILES string. Read-outs that look alike come from different tables or passages of the source.

In assay [1] the target is T1, ERR1 (also known as ERR-α or ERR-1) (Homo sapiens, UniProt P11474).
T1 sequence (P11474 193-421 limits assumed): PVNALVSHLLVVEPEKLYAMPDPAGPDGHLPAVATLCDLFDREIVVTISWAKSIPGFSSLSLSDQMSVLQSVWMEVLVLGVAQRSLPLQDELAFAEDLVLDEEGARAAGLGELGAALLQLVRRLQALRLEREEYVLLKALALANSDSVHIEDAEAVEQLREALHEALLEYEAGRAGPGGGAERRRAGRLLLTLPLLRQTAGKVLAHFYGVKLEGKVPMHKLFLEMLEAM
The assay is described as follows: TR-FRET assay (disruption of co-activator peptide binding to ERR1 LBD). The class given is biochemical. Conditions: 6 nM 6His-ERR1LBD, 6 nM GST-SRC-2 peptide; average of 3 independent experiments. Summed up:
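His-tagged ERR1 ligand-binding domain and GST-labelled SRC-2 peptide, each 6 nM, equilibrated at 25° C for 4-18 h in Tris pH 8/Hepes/KCl/DTT/delipidated BSA buffer. Compound-induced loss of co-activator binding read as Eu cryptate→XL665 energy transfer; values from hyperbolic curve fits averaged over 3 independent runs.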

Assay [2] relates to Zucker fa/fa male rats. As to the kind of experiment: Zucker fa/fa Rat Model Assay. It is filed as in vivo. Conditions: po, 120 h, 10 mg/kg orally once a day for 4 days. From the text:
Zucker fa/fa is a monogenic model of frank diabetes due to a mutation on the fa gene truncating the leptin receptor and preventing its interaction with its peptide hormone. This mutation results in a hyperphagic phenotype and the rodent develops obesity, hyperlipidemia, fasting hyperglycemia and insulin resistance. Zucker fa/fa male rats were received at four weeks of age and allowed to acclimate for one week. At five weeks of age the animals were single housed in cages in a temperature-controlled room with 12-hour light/dark cycle. The rats were allowed ad libitum access to water and food and throughout the study were maintained on a Purina 5008 diet. Animals were sorted based primarily on fed insulin levels and circulating triglycerides. Animals were dosed orally once a day (10 mg/kg) in the morning for 4 days. The vehicle used was either 20% HPβCD (Hydroxypropyl Beta Cyclodextrin) or 15% Vitamin E/30% PEG-400 (Polyethylene Glycol 400). Fed insulin and triglycerides were measured using blood collected from the tail vein at day 5. Serum plasma samples were prepared by centrifugation in EDTA (Ethylenediaminetetraacetic acid) containing tubes, transferred into 96 well plates and stored at −80° C.

As to `CN1C2CCC1CC(N1C(=O)S/C(=C\c3ccc4c(cnn4Cc4ccc(Cl)cc4C(F)(F)F)c3)C1=O)C2` (stereo not drawn) [Compound 128, (5Z)-5-({1-[4-Chloro-2-(trifluoromethyl)benzyl]-1H-indazol-5-yl}methylidene)-3-(8-methyl-8-azabicyclo[3.2.1]oct-3-yl)-1,3-thiazolidine-2,4-dione], in assay [1], the half-maximal effective concentration (EC50) was 19 nM. For the same compound, the change in vivo at 10 mg/kg in assay [2] (blood from tail vein at day 5, read-out: % Change Fed Insulin Levels) is -36%; in assay [2] (blood from tail vein at day 5, read-out: % Change Fed Triglyceride Levels), 28%.
